According to ChEMBL document CHEMBL1136014 (J Med Chem, 2002):

Assays:
[1] = system: CHO-K1; assay: Agonism of compound towards thyroid response element (TRAF beta) in CHO-K1 cells; type: functional, cell-based; details: Cricetulus griseus
[2] = system: CHO-K1; assay: Percentage agonism of compound towards thyroid response element (TRAF alpha) in CHO-K1 cells at 10 uM; Partial agonist; type: functional, Cricetulus griseus
[3] = system: CHO-K1; assay: Antagonism of compound towards thyroid response element (TRAF beta) in CHO-K1 cells; details: Cricetulus griseus
[4] = system: CHO-K1; assay: Agonism of compound towards thyroid response element (TRAF alpha) in CHO-K1 cells; type: functional, cell-based; details: Cricetulus griseus
[5] = system: CHO-K1; assay: Antagonism of compound towards thyroid response element (TRAF alpha) in CHO-K1 cells; details: Cricetulus griseus
[6] = target: T1, Thyroid hormone receptor beta (Homo sapiens, UniProt P10828)
T1 sequence (P10828 whole entry): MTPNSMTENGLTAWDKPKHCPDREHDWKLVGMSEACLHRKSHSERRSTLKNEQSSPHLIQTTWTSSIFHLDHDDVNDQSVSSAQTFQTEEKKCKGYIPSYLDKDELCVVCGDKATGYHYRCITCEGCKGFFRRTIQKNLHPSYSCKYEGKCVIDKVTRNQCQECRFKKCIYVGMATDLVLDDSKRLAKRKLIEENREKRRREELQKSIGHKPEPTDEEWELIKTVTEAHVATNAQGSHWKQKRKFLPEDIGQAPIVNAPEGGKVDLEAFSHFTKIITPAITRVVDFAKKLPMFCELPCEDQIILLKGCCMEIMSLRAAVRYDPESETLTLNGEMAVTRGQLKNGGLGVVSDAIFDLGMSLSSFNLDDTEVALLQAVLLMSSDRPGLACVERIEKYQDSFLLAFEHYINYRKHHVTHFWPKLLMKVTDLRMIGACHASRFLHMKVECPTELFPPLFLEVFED
Description: Concentration required to inhibit 50% of binding of [125I]T3 to human Thyroid hormone receptor beta 1 in CHO-K1 cells

[7] = target: T2, Thyroid hormone receptor alpha (Homo sapiens, UniProt P10827)
T2 sequence (P10827 whole entry): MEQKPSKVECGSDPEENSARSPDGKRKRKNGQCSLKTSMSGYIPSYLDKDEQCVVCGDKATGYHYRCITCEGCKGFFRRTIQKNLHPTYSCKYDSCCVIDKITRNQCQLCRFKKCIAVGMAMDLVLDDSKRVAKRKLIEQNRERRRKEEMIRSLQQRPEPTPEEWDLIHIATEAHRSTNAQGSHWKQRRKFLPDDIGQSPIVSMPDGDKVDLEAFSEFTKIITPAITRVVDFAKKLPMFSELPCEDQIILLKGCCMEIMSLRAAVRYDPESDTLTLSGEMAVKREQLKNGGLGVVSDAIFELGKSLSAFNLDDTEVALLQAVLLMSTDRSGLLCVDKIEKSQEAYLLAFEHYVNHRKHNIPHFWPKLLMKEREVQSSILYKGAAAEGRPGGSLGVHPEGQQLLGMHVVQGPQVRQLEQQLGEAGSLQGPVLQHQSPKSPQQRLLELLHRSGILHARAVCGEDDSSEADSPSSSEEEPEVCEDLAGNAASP
Description: Concentration required to inhibit 50% of binding of [125I]-T3 to human Thyroid hormone receptor alpha-1 in CHO-K1 cells

[8] = system: Cavia porcellus; assay: Action potential duration at 50% levels of repolarization in guinea pig papillary muscles after twenty days of daily i.p. injection of 40 mg/kg (Control = 168); type: functional, Muscle tissue; details: route intraperitoneal
[9] = system: Cavia porcellus; assay: Action potential duration at 90% levels of repolarization in guinea pig papillary muscles after twenty days of daily i.p. injection of 40 mg/kg Control = 186); type: functional, Muscle tissue; details: route intraperitoneal
[10] = system: Cavia porcellus; assay: Action potential amplitude of compound on guinea pig papillary muscles after twenty days of daily i.p. injection of 40 mg/kg Control = 115); type: functional, Muscle tissue; details: route intraperitoneal
[11] = system: Cavia porcellus; assay: Ratio of action potential duration (APD90/APD50) in guinea pig papillary muscles after twenty days of daily i.p. injection of 40 mg/kg Control = 1.10); type: functional, Papillary muscle; details: route intraperitoneal
[12] = system: Cavia porcellus; assay: Effective refractory period in guinea pig papillary muscles after twenty days of daily i.p. injection of 40 mg/kg Control = 201); type: functional, Muscle tissue; details: route intraperitoneal
[13] = system: Rattus norvegicus; assay: Effects on liver was determined from serum aspartate aminotransferase levels in female (5) rats after 2 weeks of daily oral administration of compound at 100 mg/kg (Control = 106+/-18); type: functional
[14] = system: Rattus norvegicus; assay: Effects on liver was determined from serum aspartate aminotransferase levels in female (5) rats after 2 weeks of daily oral administration of compound at 30 mg/kg (Control = 106+/-18); type: functional
[15] = system: Rattus norvegicus; assay: Effects on liver was determined from serum aspartate aminotransferase levels in female (5) rats after 2 weeks of daily oral administration of compound at 300 mg/kg (Control = 106+/-18); type: functional
[16] = system: Rattus norvegicus; assay: Effects on liver was determined from serum aspartate aminotransferase levels in male (5) rats after 2 weeks of daily oral administration of compound at 100 mg/kg (Control = 111+/-21); type: functional
[17] = system: Rattus norvegicus; assay: Effects on liver was determined from serum aspartate aminotransferase levels in male (5) rats after 2 weeks of daily oral administration of compound at 300 mg/kg (Control = 111+/-21); type: functional
[18] = system: Rattus norvegicus; assay: Effects on liver was determined from serum alanine aminotransferase levels in female (5) rats after 2 weeks of daily oral administration of compound at 30 mg/kg (Control = 23+/-5); type: functional
[19] = system: Rattus norvegicus; assay: Effects on liver was determined from serum alanine aminotransferase levels in female (5) rats after 2 weeks of daily oral administration of compound at 300 mg/kg (Control = 23+/-5); type: functional
[20] = system: Rattus norvegicus; assay: Effects on liver was determined from serum alanine aminotransferase levels in male (5) rats after 2 weeks of daily oral administration of compound at 100 mg/kg (Control = 30+/-3); type: functional
[21] = system: Rattus norvegicus; assay: Effects on liver was determined from serum alanine aminotransferase levels in male (5) rats after 2 weeks of daily oral administration of compound at 30 mg/kg (Control = 30+/-3); type: functional
[22] = system: Rattus norvegicus; assay: Effects on liver was determined from serum alanine aminotransferase levels in male (5) rats after 2 weeks of daily oral administration of compound at 300 mg/kg (Control = 30+/-3); type: functional
[23] = system: Rattus norvegicus; assay: Effects on liver was determined from serum aspartate aminotransferase levels in male (5) rats after 2 weeks of daily oral administration of compound at 30 mg/kg (Control = 111+/-21); type: functional
[24] = system: Rattus norvegicus; assay: Effects on liver was determined from serum alanine aminotransferase levels in female (5) rats after 2 weeks of daily oral administration of compound at 100 mg/kg (Control = 23+/-5); type: functional
[25] = system: Rattus norvegicus; assay: Effects on liver was determined from serum cholesterol levels in female (5) rats after 2 weeks of daily oral administration of compound at 100 mg/kg (Control = 0.73+/-0.05); type: functional
[26] = system: Rattus norvegicus; assay: Effects on liver was determined from serum cholesterol levels in female (5) rats after 2 weeks of daily oral administration of compound at 30 mg/kg (Control = 0.73+/-0.05); type: functional
[27] = system: Rattus norvegicus; assay: Effects on liver was determined from serum cholesterol levels in female (5) rats after 2 weeks of daily oral administration of compound at 300 mg/kg (Control = 0.73+/-0.05); type: functional
[28] = system: Rattus norvegicus; assay: Effects on liver was determined from serum cholesterol levels in male (5) rats after 2 weeks of daily oral administration of compound at 100 mg/kg (Control = 0.67+/-0.13); type: functional
[29] = system: Rattus norvegicus; assay: Effects on liver was determined from serum cholesterol levels in male (5) rats after 2 weeks of daily oral administration of compound at 30 mg/kg (Control = 0.67+/-0.13); type: functional
[30] = system: Rattus norvegicus; assay: Serum concentrations of T3 in rats after 2 weeks of daily oral administration of compound at 100 mg/kg (Control = 0.74+/-0.15); type: functional
[31] = system: Rattus norvegicus; assay: Serum concentrations of T3 in rats after 2 weeks of daily oral administration of compound at 30 mg/kg (Control = 0.74+/-0.15); type: functional
[32] = system: Rattus norvegicus; assay: Serum concentrations of T3 in rats after 2 weeks of daily oral administration of compound at 300 mg/kg (Control = 0.74+/-0.15); type: functional
[33] = system: Rattus norvegicus; assay: Serum concentrations of T4 in rats after 2 weeks of daily oral administration of compound at 100 mg/kg (Control = 33.1+/-5.00); type: functional
[34] = system: Rattus norvegicus; assay: Serum concentrations of T4 in rats after 2 weeks of daily oral administration of compound at 30 mg/kg (Control = 33.1+/-5.00); type: functional
[35] = system: Rattus norvegicus; assay: Serum concentrations of T4 in rats after 2 weeks of daily oral administration of compound at 300 mg/kg (Control = 33.1+/-5.00); type: functional
[36] = system: Rattus norvegicus; assay: Serum concentrations of Thyrotropin in rats after 2 weeks of daily oral administration of compound at 100 mg/kg (Control = 11.00+/-1.97); type: functional
[37] = system: Rattus norvegicus; assay: Serum concentrations of Thyrotropin in rats after 2 weeks of daily oral administration of compound at 30 mg/kg (Control = 11.00+/-1.97); type: functional
[38] = system: Rattus norvegicus; assay: Serum concentrations of Thyrotropin in rats after 2 weeks of daily oral administration of compound at 300 mg/kg (Control = 11.00+/-1.97); type: functional
[39] = system: Cavia porcellus; assay: Vmax of the action potential amplitude in guinea pig papillary muscles after twenty days of daily i.p. injection of 40 mg/kg Control = 205); type: functional; design: dose 40 mg/kg; details: Muscle tissue
[40] = system: Rattus norvegicus; assay: Effects on liver was determined from serum cholesterol levels in male (5) rats after 2 weeks of daily oral administration of compound at 300 mg/kg (Control = 0.67+/-0.13); type: functional
[41] = target: L-type Ca2+ channel, dihydropyridine site (Rattus norvegicus, UniProt P22002+P27732+Q02485); assay: Percentage inhibition of [3H]nitrendipine binding to L-type [Ca2+] channel dihydropyridine site in rat cortical membranes at 2 uM (70-80 %); type: cell membranes, Membrane; details: probe [3H]nitrendipine
[42] = target: Sodium channel alpha subunits; brain (Types I, II, III) (Rattus norvegicus) (UniProt P04775+P04774+P08104); details: Forebrain, Membrane, 2 uM
Sodium channel alpha subunits; brain (Types I, II, III) (Rattus norvegicus), sequence (P04775 whole entry, looked up, other chains not shown): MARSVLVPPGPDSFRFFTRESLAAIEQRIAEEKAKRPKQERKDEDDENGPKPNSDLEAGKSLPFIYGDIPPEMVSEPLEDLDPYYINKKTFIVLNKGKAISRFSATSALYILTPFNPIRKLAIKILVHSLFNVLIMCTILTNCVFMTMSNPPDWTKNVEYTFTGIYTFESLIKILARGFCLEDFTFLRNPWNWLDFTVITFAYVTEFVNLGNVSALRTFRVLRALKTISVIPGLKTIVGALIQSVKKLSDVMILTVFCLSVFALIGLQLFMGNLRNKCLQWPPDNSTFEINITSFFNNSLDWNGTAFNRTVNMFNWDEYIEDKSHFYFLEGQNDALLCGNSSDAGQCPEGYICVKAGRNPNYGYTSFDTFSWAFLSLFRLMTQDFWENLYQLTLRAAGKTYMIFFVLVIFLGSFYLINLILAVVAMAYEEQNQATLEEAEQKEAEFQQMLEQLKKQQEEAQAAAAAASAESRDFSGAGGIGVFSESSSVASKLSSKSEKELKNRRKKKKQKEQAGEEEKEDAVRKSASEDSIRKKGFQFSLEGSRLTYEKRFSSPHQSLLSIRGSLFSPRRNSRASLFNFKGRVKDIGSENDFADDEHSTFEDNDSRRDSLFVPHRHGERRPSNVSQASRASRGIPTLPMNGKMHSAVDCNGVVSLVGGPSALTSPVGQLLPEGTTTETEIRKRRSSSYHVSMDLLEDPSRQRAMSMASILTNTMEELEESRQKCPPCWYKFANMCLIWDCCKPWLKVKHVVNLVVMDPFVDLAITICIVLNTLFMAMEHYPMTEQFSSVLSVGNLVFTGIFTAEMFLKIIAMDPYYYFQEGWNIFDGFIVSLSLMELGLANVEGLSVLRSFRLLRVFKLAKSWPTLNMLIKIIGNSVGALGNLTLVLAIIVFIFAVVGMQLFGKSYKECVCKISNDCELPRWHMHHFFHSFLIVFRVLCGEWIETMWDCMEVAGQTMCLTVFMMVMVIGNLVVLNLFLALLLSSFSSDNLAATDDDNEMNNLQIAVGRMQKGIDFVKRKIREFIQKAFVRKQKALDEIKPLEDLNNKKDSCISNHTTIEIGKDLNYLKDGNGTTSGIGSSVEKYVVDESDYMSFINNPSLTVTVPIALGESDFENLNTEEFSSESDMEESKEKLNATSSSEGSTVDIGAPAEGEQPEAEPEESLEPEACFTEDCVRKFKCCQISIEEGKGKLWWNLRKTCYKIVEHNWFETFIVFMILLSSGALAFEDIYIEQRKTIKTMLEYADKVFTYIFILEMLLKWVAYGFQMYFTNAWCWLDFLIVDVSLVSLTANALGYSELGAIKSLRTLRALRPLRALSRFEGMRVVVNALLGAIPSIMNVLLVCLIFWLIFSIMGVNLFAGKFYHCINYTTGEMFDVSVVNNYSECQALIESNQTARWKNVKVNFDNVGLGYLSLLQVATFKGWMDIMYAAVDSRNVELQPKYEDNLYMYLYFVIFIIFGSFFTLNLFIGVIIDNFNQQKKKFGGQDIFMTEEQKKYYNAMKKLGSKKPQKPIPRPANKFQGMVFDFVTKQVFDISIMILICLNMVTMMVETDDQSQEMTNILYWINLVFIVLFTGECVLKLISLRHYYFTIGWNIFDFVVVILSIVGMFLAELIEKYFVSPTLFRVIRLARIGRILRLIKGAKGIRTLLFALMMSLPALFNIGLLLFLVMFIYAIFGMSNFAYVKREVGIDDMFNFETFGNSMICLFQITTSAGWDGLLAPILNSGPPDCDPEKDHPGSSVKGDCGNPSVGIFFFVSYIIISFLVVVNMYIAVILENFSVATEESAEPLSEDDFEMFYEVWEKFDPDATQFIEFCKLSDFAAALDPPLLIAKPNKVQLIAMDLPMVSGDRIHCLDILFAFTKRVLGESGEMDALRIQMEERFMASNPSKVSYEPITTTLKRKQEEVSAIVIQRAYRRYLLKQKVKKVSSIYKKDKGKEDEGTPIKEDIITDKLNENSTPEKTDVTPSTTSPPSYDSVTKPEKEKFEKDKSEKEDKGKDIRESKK
Sodium channel alpha subunits; brain (Types I, II, III) (Rattus norvegicus), sequence (P08104 whole entry, looked up, other chains not shown): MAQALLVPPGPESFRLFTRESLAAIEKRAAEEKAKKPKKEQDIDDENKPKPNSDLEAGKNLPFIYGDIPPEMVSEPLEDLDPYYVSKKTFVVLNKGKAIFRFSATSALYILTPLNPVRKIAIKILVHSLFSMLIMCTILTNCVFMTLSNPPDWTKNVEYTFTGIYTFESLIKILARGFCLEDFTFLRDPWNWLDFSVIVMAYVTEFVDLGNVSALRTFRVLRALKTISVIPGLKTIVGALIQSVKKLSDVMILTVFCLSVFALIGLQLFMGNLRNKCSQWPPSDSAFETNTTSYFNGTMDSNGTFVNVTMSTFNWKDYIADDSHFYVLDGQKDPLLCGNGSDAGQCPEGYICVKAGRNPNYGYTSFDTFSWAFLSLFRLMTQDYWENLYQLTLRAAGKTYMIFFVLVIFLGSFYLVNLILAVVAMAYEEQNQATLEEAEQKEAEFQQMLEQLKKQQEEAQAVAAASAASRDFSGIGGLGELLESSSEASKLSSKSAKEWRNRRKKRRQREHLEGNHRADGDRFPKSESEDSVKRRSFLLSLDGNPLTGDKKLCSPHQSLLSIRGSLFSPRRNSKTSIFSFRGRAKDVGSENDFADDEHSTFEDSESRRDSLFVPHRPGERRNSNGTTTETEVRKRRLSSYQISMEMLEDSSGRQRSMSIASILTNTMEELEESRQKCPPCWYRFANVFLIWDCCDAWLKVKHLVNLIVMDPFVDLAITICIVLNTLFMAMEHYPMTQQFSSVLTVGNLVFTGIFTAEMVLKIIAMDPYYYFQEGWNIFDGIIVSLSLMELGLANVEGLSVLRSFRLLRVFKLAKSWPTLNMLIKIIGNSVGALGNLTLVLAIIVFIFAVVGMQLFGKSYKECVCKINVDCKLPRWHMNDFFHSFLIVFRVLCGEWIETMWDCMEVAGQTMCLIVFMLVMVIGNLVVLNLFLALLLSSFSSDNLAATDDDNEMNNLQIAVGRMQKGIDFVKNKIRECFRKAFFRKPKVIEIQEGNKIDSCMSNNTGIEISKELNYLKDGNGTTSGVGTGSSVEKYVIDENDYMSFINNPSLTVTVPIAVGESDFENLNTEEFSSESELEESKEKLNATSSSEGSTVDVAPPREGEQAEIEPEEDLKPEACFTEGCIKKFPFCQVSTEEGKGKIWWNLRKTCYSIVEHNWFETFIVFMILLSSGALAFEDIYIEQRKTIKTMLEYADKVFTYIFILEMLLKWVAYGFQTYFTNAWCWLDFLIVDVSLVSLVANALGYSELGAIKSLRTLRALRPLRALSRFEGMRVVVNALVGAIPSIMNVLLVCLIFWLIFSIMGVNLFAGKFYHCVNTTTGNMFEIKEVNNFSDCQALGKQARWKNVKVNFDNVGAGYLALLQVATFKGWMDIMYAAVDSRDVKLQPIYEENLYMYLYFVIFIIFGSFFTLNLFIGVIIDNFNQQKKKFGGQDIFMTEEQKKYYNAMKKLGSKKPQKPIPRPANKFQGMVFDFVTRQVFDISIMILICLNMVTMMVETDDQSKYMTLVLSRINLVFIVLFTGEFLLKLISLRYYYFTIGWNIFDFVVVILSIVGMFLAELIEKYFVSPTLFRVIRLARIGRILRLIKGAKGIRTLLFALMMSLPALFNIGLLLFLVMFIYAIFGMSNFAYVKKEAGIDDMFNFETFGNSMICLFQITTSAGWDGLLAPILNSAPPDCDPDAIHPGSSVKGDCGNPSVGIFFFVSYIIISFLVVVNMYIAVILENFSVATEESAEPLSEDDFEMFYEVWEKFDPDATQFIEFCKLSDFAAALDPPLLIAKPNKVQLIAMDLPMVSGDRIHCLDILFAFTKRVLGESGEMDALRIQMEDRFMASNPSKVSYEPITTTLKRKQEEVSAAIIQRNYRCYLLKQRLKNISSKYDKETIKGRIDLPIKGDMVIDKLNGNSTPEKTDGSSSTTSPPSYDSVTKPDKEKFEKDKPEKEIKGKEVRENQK

Structure (SMILES): Cc1oc2ccccc2c1C(=O)c1cc(I)c(OCC(=O)O)c(I)c1
- EC50 [1]: 1.7 µM
- Effect [2]: 56%
- IC50 [3]: > 10 µM
- EC50 [4]: 0.45 µM
- IC50 [5]: > 10 µM
- IC50 [6]: 0.48 µM
- IC50 [7]: 0.82 µM

Structure (SMILES): Cc1oc2ccccc2c1Cc1cc(I)c(OCC(=O)O)c(I)c1
- EC50 [1]: > 10 µM
- IC50 [3]: 4.1 µM
- APD50 [8]: 182 ms
- APD90 [9]: 219 ms
- APA [10]: 116 mV
- Ratio [11]: 1.22
- ERP [12]: 223 ms
- ASAT levels [13]: 114 IU/l
- ASAT levels [14]: 101 IU/l
- ASAT levels [15]: 115 IU/l
- ASAT levels [16]: 111 IU/l
- ASAT levels [17]: 102 IU/l
- ALAT levels [18]: 21 IU/l
- ALAT levels [19]: 54 IU/l
- ALAT levels [20]: 43 IU/l
- ALAT levels [21]: 30 IU/l
- ALAT levels [22]: 67 IU/l
- ASAT levels [23]: 104 IU/l
- ALAT levels [24]: 40 IU/l
- Cholestrol levels [25]: 0.69 g/L
- Cholestrol levels [26]: 0.68 g/L
- Cholestrol levels [27]: 0.93 g/L
- Cholestrol levels [28]: 0.78 g/L
- Cholestrol levels [29]: 0.63 g/L
- Thyroid status [30]: 0.51 nM l-1
- Thyroid status [31]: 0.52 nM l-1
- Thyroid status [32]: 0.52 nM l-1
- Thyroid status [33]: 37.1 nM l-1
- Thyroid status [34]: 35.1 nM l-1
- Thyroid status [35]: 46.6 nM l-1
- Thyroid status [36]: 16.6 ng/mL
- Thyroid status [37]: 14.2 ng/mL
- Thyroid status [38]: 16.6 ng/mL
- Vmax [39]: 192 V s-1
- EC50 [4]: > 10 µM
- Cholestrol levels [40]: 0.91 g/L
- IC50 [5]: 2.2 µM
- IC50 [6]: 5.1 µM
- IC50 [7]: 4.5 µM

Structure (SMILES): CCCCc1oc2ccccc2c1C(=O)c1cc(I)c(OCC(=O)O)c(I)c1
- EC50 [1]: > 10 µM
- IC50 [3]: > 10 µM
- EC50 [4]: > 10 µM
- IC50 [5]: > 10 µM
- IC50 [7]: 1.4 µM

Structure (SMILES): CCCCc1oc2ccccc2c1C(=O)c1cc(I)c(OCCN(CC)CC)c(I)c1 [AMIODARONE]
- inhibition at 2 µM [41]: 80%
- ASAT levels [13]: 133 IU/l
- ASAT levels [14]: 109 IU/l
- ASAT levels [15]: 2052 IU/l
- ASAT levels [16]: 131 IU/l
- ASAT levels [17]: 550 IU/l
- ALAT levels [18]: 23 IU/l
- ALAT levels [19]: 284 IU/l
- ALAT levels [20]: 62 IU/l
- ALAT levels [21]: 35 IU/l
- ALAT levels [22]: 103 IU/l
- ASAT levels [23]: 110 IU/l
- ALAT levels [24]: 62 IU/l
- Cholestrol levels [25]: 1.18 g/L
- Cholestrol levels [26]: 0.89 g/L
- Cholestrol levels [27]: 1.12 g/L
- Cholestrol levels [28]: 1.26 g/L
- Cholestrol levels [29]: 0.77 g/L
- Thyroid status [30]: 0.66 nM l-1
- Thyroid status [31]: 0.66 nM l-1
- Thyroid status [32]: 0.28 nM l-1
- Thyroid status [33]: 43.2 nM l-1
- Thyroid status [34]: 43.9 nM l-1
- Thyroid status [35]: 22.3 nM l-1
- Thyroid status [36]: 16.1 ng/mL
- Thyroid status [37]: 13.9 ng/mL
- Thyroid status [38]: 11.2 ng/mL
- Cholestrol levels [40]: 1.39 g/L
- inhibition [42]: 70%
